These results are taken from patent publication US12466814B2, “Sterically shielded heptamethine cyanine dyes” (UNIVERSITY OF NOTRE DAME DU LAC, priority 2020, dated 2025).

Read-outs that look alike come from different tables or passages of the source. Marks after values point to notes of the source that are not given here.

For data set [1] the following is noted: cited from earlier work; for QY / Brightness (fluorescence brightness = ε × QY): PBS pH 7.4; for QY: data from reference; for Brightness (fluorescence brightness = ε × QY) / Quantum yield: reported data; for Quantum yield: pH 7.4 PBS.
The conditions of data set [2]: meso linkage is not cleaved by biological amines or thiols; cited from earlier work.
For data set [3] the following is noted: known from literature; cited from earlier work.
The conditions of data set [4]: PBS pH 7.4, cited from earlier work; for ε: reported data; for λabs max / λem max: spectral data from reference.
Data set [5] is described as follows: Absorption and emission spectral properties of dyes. The note with it: for ε: monomer band. It is filed as physicochemical. The method, then: General. Reagents and solvents were purchased from Sigma-Aldrich, VWR, Oakwood, Thermo Fisher and TCI and used without further purification unless stated otherwise. Anhydrous tetrahydrofuran was distilled with metal sodium and benzophenone. Column chromatography was performed using Biotage SNAP Ultra columns. ^1H, ^13C and ROESY NMR spectra were recorded on a Bruker 500 NMR spectrometer. Chemical shifts are presented in ppm and referenced by residual solvent peak. High-resolution mass spectrometry (HRMS) was performed using a time-of-flight (TOF) analyzer with electrospray ionization (ESI). Absorption spectra were recorded on an Evolution 201 UV/vis spectrometer with Thermo Insight software. Fluorescence spectra were collected on a Horiba Fluoromax-4 fluorometer with FluoroEssence software. Analyte solutions were prepared in HPLC grade water (Sigma-Aldrich), phosphate buffered saline (Thermo Fisher), fetal bovine serum (Sigma-Aldrich) or buffer B (575 mM NaCl, 37.5 mM NaH2PO4 and 0.75 mM EDTA in water, pH 7.5). All absorption and fluorescence spectra were collected using quartz cuvettes (1 mL, 1 cm path length; for emission and excitation spectra, slit width=3 nm).

The nature of data set [6]: Dye self-aggregation by absorption/excitation spectra. It is filed as physicochemical. As to conditions: in water / aqueous media, absorption spectra.
Excerpt: Self-aggregation of heptamethine cyanine dyes is readily indicated by conversion of monomer absorption bands into aggregate bands, in this case blue-shifted H-aggregates.
Data set [7] can be described thus: Quantum yield and fluorescence brightness relative to UL766. The note with it: for Brightness (fluorescence brightness = ε × QY): PBS pH 7.4, error ±15%; for Quantum yield: pH 7.4 PBS, relative to UL766, error ±10%. Format: physicochemical. The source says:
The fluorescence spectrum of each solution was obtained with excitation at 730 nm, and the integrated area was used in the quantum yield calculation by the following equation:
[formula] where η is the refractive index of the solvent, I is the integrated fluorescence intensity, and A is the absorbance at a chosen wavelength. […]

Data set [8] relates to integrin positive A549 cells. Description: Cell uptake by fluorescence microscopy. It is filed as cell-based, human. Here is the method: FIG. 19. […] The two targeted dyes contain a cyclic peptide cRGDfK sequence for targeting the overexpressed cell surface integrin receptors. The blocking experiments added 100 μM of free cRGDfK prior to the incubation with RGD probes. NIR heptamethine fluorescence is shown in green, and Hoechst nuclear stain is shown in blue. Scale bar=30 μm. (c) Quantification of intracellular mean fluorescence intensities as a measure of NIR dye internalization (6 micrographs per condition and 3 replicates). * indicates p<0.05, and ** p<0.01.
Cell Microscopy. For fluorescence microscopy, A549 cells were seeded and grown to 70% confluency on an 8-well chambered coverglass (Lab-Tek, Nunc, USA). […] For blocking, 100 μM of cRGDfK was added to the cells, 10 min prior to dye treatment and remained present during NIR dye incubation. After dye incubation, the cells were washed several times with PBS, fixed with 4% cold paraformaldehyde for 20 min at room temperature and washed again with PBS. […] Next, a triangle threshold was employed and used to calculate the average mean pixel intensity (MPI) where overall averages and SEM were calculated and plotted in GraphPad Prism. A total of 6 micrographs were evaluated per condition and each experiment was conducted in triplicate.

Data set [9] deals with subcutaneous tumor (human A549 cells). Briefly: Mouse tumor imaging. It is filed as in vivo, nude mice. The note with it: A549 tumor mice, 10 nmol. Here is the method:
[…]. The fluorescence mean pixel intensity (MPI) of two regions of interest (equal sizes) on the fluorescent images (tumor or background site on the opposite flank), at different post-injection time points, were measured using ImageJ2 software and used to calculate values for Tumor MPI, and Tumor-to-Background Ratio. * indicates p<0.05, ** p<0.01, and *** p<0.001.
Mouse Tumor Imaging. All animal experiments were conducted under protocols that were approved by the Notre Dame Institutional Animal Care and Use Committee. Female Foxn1 nude mice (N=8) were inoculated with A549 cells (1×10^6) in Corning Matrigel matrix on the right rear flank. […]. The mice were then injected with dye and imaged at 0, 0.5, 1, 2, and 3 hr. At 3 hr, the mice were anesthetized and sacrificed via cervical dislocation, and blood was collected from the heart. To simulate a surgery, the mice were imaged prior to surgery, the fluorescent tumor was fully removed, and the mice were imaged again. […] For image processing, the whole body and tumor images were pseudocolored “fire,” and an arbitrary maximum fluorescence value was chosen. Biodistribution analysis was performed by importing NIR fluorescence images of the excised organs from each mouse into ImageJ2 and the amount of dye in each organ was quantified by manually drawing a region of interest around each organ and determining the fluorescence MPI. […]

Data set [10] is described as follows: Photostability, Xenon lamp irradiation. Format: physicochemical. The method, then: FIG. 2. Two separate photostability studies. (a) Lamp irradiation: Four separate cuvettes, each containing 1 μM dye in PBS buffer, pH 7.4, were irradiated by a 150 W Xenon lamp with a 620 nm long-pass filter. The plot of normalized dye absorbance versus time was fit to a one-phase exponential decay. […] The length scale bar on each NIR fluorescence image is 1 cm.
Photostability Measurements. Lamp Irradiation: A solution of dye (1 μM) in PBS buffer, pH 7.4, was placed in a 1×1×4 cm^3 cuvette that was exposed to air and irradiated at a distance of 3 cm by a 150 W Xenon lamp with a 620 nm long-pass filter. An absorbance spectrum was recorded every 10 min. The normalized maximum absorbance of dye was plotted against time and fitted to a non-linear regression, one-phase exponential decay. […] A 1.5 mL vial containing the solution was irradiated at a distance of 3 cm by a 150 W Xenon lamp with a 620 nm long-pass filter.

Data set [11] in a line: Mouse biodistribution in normal mice. It is filed as in vivo, SKH1 hairless mice. The note with it: 10 nmol. The source says: FIG. 20. a) Representative whole-body NIR fluorescence images of living SKH1 hairless mice at 0, 1, and 2 hr after intravenous injection of either ICG or s775z (10 nmol). b) In vivo biodistribution of s775z and ICG in normal mice. The SKH1 hairless mice (N=4) received an intravenous injection of ICG or s775z (10 nmol) and were sacrificed after 2 hr. The mean pixel intensity (MPI) for each excised organ is relative to the MPI for thigh muscle from the same animal; error bars indicate ±SEM. * indicates p<0.05. Note: the y-axis is truncated.
Mouse Biodistribution. All animal experiments were conducted under protocols that were approved by the Notre Dame Institutional Animal Care and Use Committee. Female SKH1 hairless mice (N=4) were divided into two cohorts and received a retro-orbital injection of ICG or s775z (50 μL, 10 nmol). […] The mice were then injected with dye and imaged at 0, 1, and 2 hr. At 2 hr, the mice were anesthetized, sacrificed via cervical dislocation, and blood was collected from the heart. The lower cavity of the mice was then exposed and imaged. […] The images were pseduocolored “fire,” and an arbitrary maximum fluorescence value was chosen. […] The amount of dye was then quantified by manually drawing a region of interest around each organ. The MPI of each organ was measured and divided by the MPI for thigh muscle from the same animal.

As for `CC1(C)C(/C=C/C2=C(Oc3ccc(S(=O)(=O)O)cc3)C(=C/C=C3/N(CCCCS(=O)(=O)O)c4ccc(S(=O)(=O)[O-])cc4C3(C)C)/CCC2)=[N+](CCCCCC(=O)O)c2ccc(S(=O)(=O)O)cc21` [CW800], in data set [1], the QY is given as 0.090, the “Brightness (fluorescence brightness = ε × QY)” value (from here on “Brightness”) is on record as 22,000 and the Quantum yield is 9.0%. Also, in [2], the Stable to nucleophiles result is recorded as “No”. Besides, the “Change in serum under very similar conditions” value in data set [3] is given as “degradation”. Besides, in [4], the ε is reported as 242,000 M^−1cm^−1, the λabs max is 775 nm and the λem max was 796 nm.
In the case of `CC1(C)C(/C=C/C2=C(c3ccc(C(=O)NCCCC[C@@H]4NC(=O)[C@@H](Cc5ccccc5)NC(=O)[C@H](CC(=O)O)NC(=O)CNC(=O)[C@H](CCCNC(=N)N)NC4=O)cc3)C(=C/C=C3/N(CCC[N+](C)(C)C)c4ccc(S(=O)(=O)O)cc4C3(C)C)/CCC2)=[N+](CCC[N+](C)(C)C)c2ccc(S(=O)(=O)O)cc21` [Dye 756z-RGD], the “SS (Stokes shift)” value in [5] (PBS pH 7.4) is recorded as 16 nm. Moreover, in data set [5] (PBS pH 7.4, room temperature), the “λabs max, aggregate (a) band” value is on record as 682 (a)/ nm; the λem max is 773 nm; the ε is 147,000 M^−1cm^−1. In addition, the λabs max in data set [5] (PBS pH 7.4, room temperature, monomer (m) band where an aggregate band is also listed) is reported as 757 (m) nm. Besides, the Aggregation state entry in [6] is “concentration-dependent mixture of fluorescent monomer and non-fluorescent H-aggregate”. For the same compound, in data set [7], the “Brightness” value is recorded as 16,000 and the Quantum yield is 10.7^[b] %. Also, the “Cell uptake with blocking” value in [8] (A549 cells pre-incubated with excess (100 μM) cRGDfK) is “successfully blocked”. In addition, the Cell uptake result in data set [8] (A549 cells, 10 μM dye, 1 hr, 37° C.) is listed as “much higher cell uptake”.
Regarding `CC1(C)C(/C=C/C2=C(Oc3ccc(CCC(=O)O)cc3)C(=C/C=C3/N(CCC[N+](C)(C)C)c4ccc(S(=O)(=O)O)cc4C3(C)C)/CCC2)=[N+](CCC[N+](C)(C)C)c2ccc(S(=O)(=O)O)cc21` [ZW800-1], in data set [1], the QY is 0.135, the “Brightness” value is 33,000 and the Quantum yield is 13.5%. The Stable to nucleophiles result in data set [2] was “No”. Also, the “Change in serum under very similar conditions” value in data set [3] was “degradation”. Besides, in [4], the ε is recorded as 246,000 M^−1cm^−1, the λabs max is listed as 770 nm and the λem max is given as 788 nm.
`COCCOCCOCCOCc1cn(Cc2cc(C(=O)NCCCC[C@@H]3NC(=O)[C@@H](Cc4ccccc4)NC(=O)[C@H](CC(=O)O)NC(=O)CNC(=O)[C@H](CCCNC(=N)N)NC3=O)cc(Cn3cc(COCCOCCOCCOC)nn3)c2C(=C\C=C\C2=[N+](CCC[N+](C)(C)C)c3ccc(S(=O)(=O)O)cc3C2(C)C)/C=C/C=C2/N(CCC[N+](C)(C)C)c3ccc(S(=O)(=O)O)cc3C2(C)C)nn1` [s775z-RGD]: the “Clearance and background retention” value in data set [9] was “rapid, near-exclusive renal clearance from the bloodstream”.
With `CC1(C)C(/C=C/C=C/C=C/C=C2\N(CCCCS(=O)(=O)O)c3ccc4ccccc4c3C2(C)C)=[N+](CCCCS(=O)(=O)[O-])c2ccc3ccccc3c21` [ICG, Indocyanine Green], in data set [5] (PBS pH 7.4, room temperature), the ε was 71,000 M^−1cm^−1. For the same compound, in data set [7], the “Brightness” value is listed as 1,600 and the Quantum yield was 2.3^[b] %. The half-life at 1 μM in data set [10] (PBS buffer in a cuvette exposed to air, pH 7.4 PBS, 150 W Xenon lamp irradiation, 620 nm long-pass filter, 23° C., 1 μM dye, read-out: t1/2, half-life of first-order decay (converted)) is 13.3 min. In [10] (pH 7.4 PBS, 150 W Xenon lamp irradiation, 620 nm long-pass filter, 23° C., 1 μM dye), the “k, rate constant of first-order decay” value was determined as 0.00087 s⁻¹. Also, in data set [10] (separate cuvettes, dye in PBS, Xenon lamp >620 nm), the Order of photostabilities result is listed as “s775z>756z>UL766>ICG”. The Clearance from bloodstream entry in data set [11] (retro-orbital injection, live imaging over 2 hr) is “quickly cleared from the mouse bloodstream”. Moreover, the “Clearance pathway / biodistribution” value in data set [11] (sacrificed after 2 hours) was “accumulated in the intestines and liver”.
